Our source for the GI50 and TGI values is PubChem BioAssay (NCI).

Test systems include SN12C renal; SNB-19 CNS; HT29 colon; UO-31 renal; HOP-62 NSCLC; SF-268 CNS; A498 renal; MDA-MB-435; T-47D breast; HCC-2998 colon.
Assay in all cases: inhibition of tumour cell growth, NCI panel, 48 h

Values joined by “and” are separate entries in the source; they are usually repeats but may differ in a detail not shown here. Equal values may be shown once.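 Growth conditions: 96-well plates. Treatment: test compound, 48 hours, 5 concentrations. Analysis: linear interpolation between bracketing concentrations; unreached endpoints set to highest concentration. GI50 = concentration required for 50% inhibition of growth. TGI is the concentration that stops growth completely.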 Where a SMILES comes first, the peptide text is derived from it. [ ]: non-standard residue; d: D form. 2Nal = N[CH](Cc1ccc2ccccc2c1)C(=O)O

For the compound `NC(=O)c1c(OCc2c(F)cc(Br)cc2F)nsc1NC(=O)NCCCCN1CCCC1`, the GI50 with SN12C renal is 1080 nM; in the assay with SNB-19 CNS it was 2270 nM; in the assay with HT29 colon, 1460 nM; in the assay with UO-31 renal, 498 nM; in the assay with HOP-62 NSCLC, 1580 nM; in the assay on SF-268 CNS, 1780 nM. The GI50 in the assay on A498 renal is 86 nM; in the assay with MDA-MB-435 it was 2260 nM; in the assay on T-47D breast it was 1180 nM; with HCC-2998 colon, 5.26 µM. Further, the TGI in the assay with SN12C renal was 8.28 µM; in the assay with SNB-19 CNS, more than 10 µM; with HT29 colon, 6.77 µM; in the assay with UO-31 renal it was 2.1 µM; in the assay on HOP-62 NSCLC, more than 10 µM; in the assay on SF-268 CNS, more than 10 µM. Further, the TGI in the assay on A498 renal is 0.91 µM; in the assay on MDA-MB-435 it was 6.75 µM; with T-47D breast, more than 10 µM; with HCC-2998 colon, more than 10 µM.
Consider `CS(=O)(=O)c1ccc(C(F)(F)F)cc1NC(=O)Nc1cnc(Oc2ccc(-c3cc(Cl)cnc3N)cc2)nc1`, for which the GI50 with SN12C renal is 2250 nM; in the assay on SNB-19 CNS it was 2800 nM; with HT29 colon, 2240 nM; in the assay on UO-31 renal, 1860 nM; in the assay on HOP-62 NSCLC, 3270 nM; in the assay with SF-268 CNS, 2390 nM. Besides, the GI50 in the assay on A498 renal was 1780 nM; with MDA-MB-435, 2230 nM; in the assay on T-47D breast, 2050 nM; in the assay on HCC-2998 colon it was 2.79 µM. Further, the TGI with SN12C renal was found to be 5.26 µM; in the assay on SNB-19 CNS, 34 µM; in the assay on HT29 colon, 7.52 µM; in the assay on UO-31 renal, 6.72 µM; with HOP-62 NSCLC, 12.5 µM; in the assay with SF-268 CNS, 10.3 µM. Besides, the TGI amounted to 5.09 µM in the assay on A498 renal, 5.79 µM in the assay with MDA-MB-435, 7.7 µM in the assay with T-47D breast and 8.72 µM in the assay with HCC-2998 colon.
As for `N#Cc1ccc(-n2cnc(NC(=O)[C@H]3CCN(C#N)C3)c2)cc1`, the GI50 in the assay on SN12C renal was 2720 nM; in the assay on SNB-19 CNS, 3510 nM; in the assay on HT29 colon, 1290 nM; in the assay on UO-31 renal, 546 nM; in the assay on HOP-62 NSCLC, 2280 nM; in the assay with SF-268 CNS it was 2830 nM. Moreover, the GI50 in the assay on A498 renal is 2030 nM; in the assay with MDA-MB-435, 234 nM; with T-47D breast, 706 nM; in the assay on HCC-2998 colon, 2.28 µM. The TGI is more than 70.3 µM in the assay with SN12C renal; 98.7 µM in the assay on SNB-19 CNS; 7.3 µM in the assay with HT29 colon; 4 µM in the assay on UO-31 renal; 15.5 µM in the assay on HOP-62 NSCLC; 25.5 µM in the assay with SF-268 CNS. Besides, the TGI in the assay with A498 renal stood at 4.76 µM; in the assay on MDA-MB-435, 18.4 µM; in the assay on T-47D breast it was 6.86 µM; with HCC-2998 colon it was 18.6 µM.
As for `Cc1cc(N2CCN(C)CC2)nc(NC2CCCC(Nc3ccnc4cc(Cl)ccc34)C2)n1` (stereo unspecified), the GI50 in the assay with SN12C renal was 3090 nM; in the assay on SNB-19 CNS it was 3420 nM; in the assay with HT29 colon, 2140 nM; in the assay on UO-31 renal, 1490 nM; in the assay with HOP-62 NSCLC, 2220 nM; in the assay on SF-268 CNS, 1970 nM. Besides, the GI50 in the assay with A498 renal is 4310 nM; in the assay on MDA-MB-435, 1800 nM; in the assay on T-47D breast it was 1910 nM; with HCC-2998 colon, 1.97 µM. Further, the TGI in the assay on SN12C renal is 12.2 µM; with SNB-19 CNS, 13.2 µM; with HT29 colon it was 6.16 µM; with UO-31 renal, 2.86 µM; in the assay with HOP-62 NSCLC, 6.03 µM; in the assay on SF-268 CNS, 6.35 µM. For the same compound, the TGI is 15.1 µM in the assay with A498 renal, 3.37 µM with MDA-MB-435, 4.6 µM in the assay with T-47D breast and 7.4 µM with HCC-2998 colon.
Take `COC(=O)c1c2c(c(C)[n+]([O-])c1C)C(=O)C(NCc1ccc(F)c(Cl)c1)=CC2=O`: the GI50 in the assay on SN12C renal was 1520 nM; in the assay with SNB-19 CNS it was 2810 nM; with HT29 colon, 1350 nM; in the assay with UO-31 renal, 2110 nM; in the assay on HOP-62 NSCLC, 2960 nM; in the assay with SF-268 CNS it was 2640 nM. The GI50 is 1520 nM in the assay on A498 renal, 1470 nM in the assay on MDA-MB-435, 1840 nM in the assay with T-47D breast and 2.28 µM in the assay on HCC-2998 colon. Besides, the TGI is 3.66 µM in the assay on SN12C renal; 9.33 µM with SNB-19 CNS; more than 100 µM in the assay with HT29 colon; 7.46 µM in the assay on UO-31 renal; 23.1 µM with HOP-62 NSCLC; 13.2 µM with SF-268 CNS. In addition, the TGI in the assay on A498 renal was 3.68 µM; in the assay with MDA-MB-435, 2.87 µM; with T-47D breast, 5.09 µM; in the assay on HCC-2998 colon, 6.66 µM.
As to `C[C@]12CC[C@@H]3c4ccc(O)cc4CC[C@H]3[C@@H]1CC[C@@H]2NS(=O)(=O)c1cccc(Br)c1`, the GI50 with SN12C renal is 2250 nM; in the assay on SNB-19 CNS, 7090 nM; with HT29 colon, 3760 nM; in the assay on UO-31 renal it was 2030 nM; with HOP-62 NSCLC it was 10400 nM; with SF-268 CNS, 3980 nM. The GI50 with A498 renal is 1800 nM; in the assay on MDA-MB-435 it was 2690 nM; with T-47D breast, 5050 nM; in the assay on HCC-2998 colon, 4.31 µM. In addition, the TGI in the assay with SN12C renal was 5.73 µM; in the assay with SNB-19 CNS it was 20.4 µM; in the assay with HT29 colon, 12.7 µM; with UO-31 renal, 8.72 µM; in the assay with HOP-62 NSCLC it was 22.5 µM; with SF-268 CNS, 16.6 µM. Further, the TGI was 8.45 µM with A498 renal, 9.21 µM in the assay on MDA-MB-435, 17.6 µM in the assay with T-47D breast and 15.9 µM in the assay on HCC-2998 colon.
In the case of `CCN(C)S(=O)(=O)Nc1cccc(Nc2ncnc3cc(NC(=O)CCl)ccc23)c1Cl`, the GI50 in the assay on SN12C renal is 1080 nM; in the assay with SNB-19 CNS, 2990 nM; in the assay on HT29 colon, 1330 nM; in the assay with UO-31 renal it was 4170 nM; with HOP-62 NSCLC it was 3420 nM; in the assay on SF-268 CNS, 2840 nM. The GI50 was 5020 nM with A498 renal, 1920 nM in the assay on MDA-MB-435, 5010 nM in the assay with T-47D breast and 3.89 µM with HCC-2998 colon. Besides, the TGI in the assay with SN12C renal was 4.46 µM; in the assay with SNB-19 CNS, 7.18 µM; with HT29 colon it was 4.83 µM; in the assay on UO-31 renal, 7.93 µM; in the assay on HOP-62 NSCLC, 7.73 µM; in the assay with SF-268 CNS, 7.72 µM. Further, the TGI stood at 24.8 µM in the assay on A498 renal, 6.44 µM in the assay with MDA-MB-435, 13.2 µM in the assay on T-47D breast and 9.57 µM in the assay with HCC-2998 colon.
As for `CC(NC(=O)C(N)Cc1ccccc1)C(=O)NC(Cc1ccc(O)cc1)C(=O)NC(Cc1c[nH]c2ccccc12)C(=O)NC(CCCCN)C(=O)NC(C(=O)NC(C)C(=O)NC(Cc1ccc2ccccc2c1)C(N)=O)C(C)C` (stereo unspecified) (H-FAYWKVA[2Nal]-NH2; configuration not given here), the GI50 with SN12C renal is more than 100000 nM; in the assay on HT29 colon it was 37100 nM; with UO-31 renal, 27100 nM; with HOP-62 NSCLC, 23100 nM; in the assay with A498 renal it was 19400 nM; in the assay on HCC-2998 colon it was 29.7 µM. The TGI is more than 100 µM in the assay with SN12C renal; 71.1 µM in the assay on SNB-19 CNS; more than 100 µM in the assay with HT29 colon; > 12.5 µM and 58.6 µM in the assay on UO-31 renal; > 12.5 µM and 53.5 µM in the assay with HOP-62 NSCLC; more than 12.5 µM in the assay with SF-268 CNS. The TGI with A498 renal was > 12.5 µM and 49.4 µM; in the assay with MDA-MB-435 it was more than 12.5 µM; in the assay with T-47D breast, more than 12.5 µM; with HCC-2998 colon it was more than 100 µM.
Take `COc1cc(/C=C2\C(=O)N(c3c(Cl)cccc3Cl)c3ccccc32)cc(OC)c1O`: the GI50 with SN12C renal was 1010 nM; in the assay on SNB-19 CNS, 742 nM; in the assay with HT29 colon, 2170 nM; in the assay with UO-31 renal, 769 nM; with HOP-62 NSCLC, 1230 nM; in the assay on SF-268 CNS, 413 nM. Further, the GI50 was 5590 nM in the assay on A498 renal, 626 nM in the assay with MDA-MB-435, 2890 nM in the assay with T-47D breast and 3.3 µM with HCC-2998 colon. Moreover, the TGI in the assay with SN12C renal amounted to 17.6 µM; in the assay on SNB-19 CNS it was 19.3 µM; with HT29 colon, 8.62 µM; with UO-31 renal it was 12.3 µM; in the assay on HOP-62 NSCLC, 20.3 µM; in the assay on SF-268 CNS it was 14.6 µM. In addition, the TGI was 16.1 µM in the assay with A498 renal, 15.4 µM in the assay on MDA-MB-435, 17.8 µM with T-47D breast and 17.7 µM in the assay on HCC-2998 colon.
